Experiments:
[1] = tested on: kidney tissues; test: MALDI MSI ion intensity of renal endogenous metabolites, rotenone-treated vs untreated kidney; assay type: in vivo, rat; parameters: key to Ion Intensity in Rotenone-treated Kidney Tissues: N-Acetylhistidine / Ion Intensity in Rotenone-treated Kidney Tissues: O-Phosphotyrosine / Ion Intensity in Rotenone-treated Kidney Tissues: Adenosine diphosphate / Ion Intensity in Rotenone-treated Kidney Tissues: LysoPC(P-16:0) / Ion Intensity in Rotenone-treated Kidney Tissues: LysoPC(16:1) / Ion Intensity in Rotenone-treated Kidney Tissues: LysoPC(16:0) / Ion Intensity in Rotenone-treated Kidney Tissues: LysoPC(17:0) / Ion Intensity in Rotenone-treated Kidney Tissues: LysoPC(18:2) / Ion Intensity in Rotenone-treated Kidney Tissues: L-carnitine / Ion Intensity in Rotenone-treated Kidney Tissues: LysoPC(18:1) / Ion Intensity in Rotenone-treated Kidney Tissues: LysoPC(20:4) / Ion Intensity in Rotenone-treated Kidney Tissues: Phosphorylcholine / Ion Intensity in Rotenone-treated Kidney Tissues: Adenosine monophosphate / Ion Intensity in Rotenone-treated Kidney Tissues: Creatinine / Ion Intensity in Rotenone-treated Kidney Tissues: Histidine / Ion Intensity in Rotenone-treated Kidney Tissues: Phenylalanine / Ion Intensity in Rotenone-treated Kidney Tissues: 3-methylhistidine / Ion Intensity in Rotenone-treated Kidney Tissues: Arginine: ↑ indicates higher ion intensity level than that of the control group; ↓ indicates lower ion intensity level than that of the control group; *p < 0.05; **p < 0.01; ***p < 0.001; settings: vs control; for Ion intensity in rotenone-treated kidney tissues: Glycero-3-phosphocholine / Ion intensity in rotenone-treated kidney tissues: Inosine / Ion intensity in rotenone-treated kidney tissues: LysoPC(18:0): [M+K]+
Experimental: (§1) Rats were sacrificed 24 h after drug administration, and the kidney and liver organs were immediately removed, flash-frozen with liquid nitrogen, and stored at −80°C in a freezer for long-term storage. The administration and harvesting of organs were conducted by the Pharmalytics Corporation, accredited by the Food and Drug Administration (FDA, Philippines) for bioavailability and bioequivalence research. The animal study was reviewed and approved by the Institutional Animal Care and Use Committee (IACUC) Esteleydes Animal Laboratory and Research Facility and by the Bureau of Animal Industry—Animal Health and Welfare Division in the Philippines.
To identify possible metabolic alterations, the m/z values of endogenous compounds found in kidney were extracted from the human metabolome database (http://www.hmdb.ca). The spatial mapping of endogenous compounds was visualized by MALDI HDMS imaging. The detection of metabolite biomarkers was supported by their spatial distribution, normalized ion intensity, m/z accuracy, and similar drift time bins in thin tissues sectioned from the seven identified layers of drug-treated and control rat kidney.
MALDI HDMS raw data was imported into High-Definition Imaging (HDI) software v1.5 (Waters Corporation, Manchester, United Kingdom). Data processing was performed by detecting 10,000 intense peaks between a mass range of m/z 50–750, a drift time maximum of 200 bins, and a lock mass-based correction at m/z 464.6064. Following data processing, peak picking was carried out and data was normalized based on the total ion current (TIC). The spatial distribution of rotenone and kidney endogenous molecules from the m/z peak list was visualized using the HDI software. […] The tentative identification and assignment of kidney metabolites were based on the metabolites in the human metabolome database (http://www.hmdb.ca). The m/z values and structure of these renal endogenous molecules were verified using PubChem (https://pubchem.ncbi.nlm.nih.gov), ChemDraw Professionals, and by the related literature ([Jung et al., 2016]; [Nizioł et al., 2020]; [Zhu Y. et al., 2022]).
A multivariate analysis was performed by importing the merged CSV file of processed MALDI image data into EZinfo v3.0 (Waters Corporation, Manchester, United Kingdom). Principal component analysis (PCA) was used to find patterns or trend in the MALDI dataset of the control and drug-treated groups. A peak list of biomolecules was manually created for PCA analysis from the laser-ablated kidney tissue sections. Pareto variance was used to scale the x-variable and to eliminate any bias in this unsupervised algorithm. Similar and far away observations between the dataset were illustrated based on the t[1] and t[2] indices. Meanwhile, the statistical differences between the mass ion intensity of endogenous compounds in two treatment groups were analyzed using the Student’s t-test of GraphPad Prism version 9.4.0 (GraphPad Software Inc., San Diego, CA, United States). The significance threshold was set at p < 0.05 (*), p < 0.01 (**), and p < 0.001 (***).

[2] = tested on: kidney tissues; test: H&E histology of rotenone-treated kidney tissue sections; assay type: in vivo; settings: rat, single oral 2 mg/kg, 24 h
Experimental: as §1
Matrix was removed from the laser-ablated kidney sections using 95% EtOH for 20 s before rehydration with distilled water. The tissue-mounted glass slides were immersed in Harris hematoxylin solution (Sigma Aldrich, St. Louis, MO, United States) for 4 min and the excess was rinsed off with deionized water twice for 1 min. Hematoxylin differentiation of tissues was then performed using 0.5% acid alcohol for 10 s. The glass slides were rinsed using deionized water for 1 min followed by soaking in ammonia solution for 1 min and rinsing in deionized water twice for 1 min. Kidney sections were then counterstained using eosin Y solution (Sigma Aldrich, St. Louis, MO, United States) for 2 min. […]

[3] = Qualitative MALDI MSI with ion mobility: spatial distribution of rotenone and its metabolites in kidney and liver; assay type: in vivo; settings: rat, single oral 2 mg/kg, 24 h
Experimental: Agarose-embedded kidney and liver organs were cut longitudinally at 5 µm thickness at −20°C using a cryostat (Leica CM 1950; Leica Biosystems, Germany), and thaw-mounted onto clean glass slides. The agarose-embedded kidney or liver was trimmed up to 500 µm to remove the agarose covering a portion of the organ. Subsequently, seven layers from the outer portion towards the middle were identified with a 100 µm distance between each layer. Representative cryosections were obtained from each identified layer of the untreated and drug-treated rat kidney. The agarose surrounding the kidney or liver cryosectioned tissue was manually removed before mounting onto a glass slide. Prior to matrix coating, the glass slides mounted with thin kidney cryosections were placed in a box and kept in a vacuum desiccator cabinet overnight ([Costa et al., 2013]; [Marques et al., 2014]; [Dalisay et al., 2015]; [Suarez et al., 2023]).
Matrix solution was applied to evenly coat the entire tissue surface using a HTX M5 Sprayer (HTX Technologies, LLC, Carrboro, NC, United States). The parameter settings were optimized to avoid metabolite delocalization and compromised spatial integrity. […]

[4] = tested on: rats; settings: ref Jiang et al. (2017); cited from earlier work
[5] = ref Udeani et al., 2001; Organization for Economic Cooperation and Development, 2020; cited from earlier work
[6] = rat, single oral 2 mg/kg, 24 h, [M+H]+

With C=C(C)[C@H]1Cc2c(ccc3c2O[C@@H]2COc4cc(OC)c(OC)cc4[C@@H]2C3=O)O1 [rotenone, Rotenone] as the compound, how does the “Ion Intensity in Rotenone-treated Kidney Tissues: 3-methylhistidine” value ([1]; Table S1, [M+H]+) read?
Its value is “↓”.

And the “Ion Intensity in Rotenone-treated Kidney Tissues: Adenosine diphosphate” value ([1]; Table S1, [M+H]+)?
Its value is “↑”.

And the “Ion Intensity in Rotenone-treated Kidney Tissues: Adenosine monophosphate” value ([1]; Table S1, [M+H]+)?
Its value is “↓”.

What about the “Ion Intensity in Rotenone-treated Kidney Tissues: Arginine” value ([1]; Table S1, [M+H]+) of the same compound?
Its value is “↓”.

And the “Ion Intensity in Rotenone-treated Kidney Tissues: Creatinine” value ([1]; Table S1, [M+H]+)?
Its value is “↓”.

What about the “Ion Intensity in Rotenone-treated Kidney Tissues: Histidine” value ([1]; Table S1, [M+H]+) of the same compound?
The value was “↑”.

What about the “Ion Intensity in Rotenone-treated Kidney Tissues: L-carnitine” value ([1]; Table S1, [M+H]+) of the same compound?
Its value is “↑”.

And the “Ion Intensity in Rotenone-treated Kidney Tissues: LysoPC(16:0)” value ([1]; Table S1, [M+H]+)?
The value was “↓”.

What about the “Ion Intensity in Rotenone-treated Kidney Tissues: LysoPC(16:1)” value ([1]; Table S1, [M+H]+) of the same compound?
Its value is “↑”.

What about the “Ion Intensity in Rotenone-treated Kidney Tissues: LysoPC(17:0)” value ([1]; Table S1, [M+H]+) of the same compound?
The value was “↓”.

And the “Ion Intensity in Rotenone-treated Kidney Tissues: LysoPC(18:1)” value ([1]; Table S1, [M+H]+)?
The value was “↑”.

What about the “Ion Intensity in Rotenone-treated Kidney Tissues: LysoPC(18:2)” value ([1]; Table S1, [M+H]+) of the same compound?
Its value is “↑”.

And the “Ion Intensity in Rotenone-treated Kidney Tissues: LysoPC(20:4)” value ([1]; Table S1, [M+H]+)?
The value was “↑”.

What about the “Ion Intensity in Rotenone-treated Kidney Tissues: LysoPC(P-16:0)” value ([1]; Table S1, [M+H]+) of the same compound?
The value was “↓”.

And the “Ion Intensity in Rotenone-treated Kidney Tissues: N-Acetylhistidine” value ([1]; Table S1, [M+H]+)?
The value was “↓”.

And the “Ion Intensity in Rotenone-treated Kidney Tissues: O-Phosphotyrosine” value ([1]; Table S1, [M+H]+)?
Its value is “↓”.

What about the “Ion Intensity in Rotenone-treated Kidney Tissues: Phenylalanine” value ([1]; Table S1, [M+H]+) of the same compound?
The value was “↓”.

And the “Ion intensity in rotenone-treated kidney tissues: Choline” value ([1]; Table S1, [M+H]+)?
The value was “↓***”.

What about the “Ion intensity in rotenone-treated kidney tissues: Sphingomyelin (D18:1/16:0)” value ([1]; Table S1, [M+H]+) of the same compound?
Its value is “↑*”.

And the “Ion intensity in rotenone-treated kidney tissues: Glycero-3-phosphocholine” value ([1]; Table S1)?
Its value is “↓*”.

And the “Ion intensity in rotenone-treated kidney tissues: Inosine” value ([1]; Table S1)?
The value was “↓**”.

What about the “Ion intensity in rotenone-treated kidney tissues: LysoPC(18:0)” value ([1]; Table S1) of the same compound?
The value was “↓**”.

What about the “Ion Intensity in Rotenone-treated Kidney Tissues: Phosphorylcholine” value ([1]; Table S1, [M]+) of the same compound?
Its value is “↑”.

What about the “Ion intensity in rotenone-treated kidney tissues: Choline” value [1, 6] of the same compound?
Its value is “↓***”.

What about the “Ion intensity in rotenone-treated kidney tissues: Sphingomyelin (D18:1/16:0)” value [1, 6] of the same compound?
Its value is “↑*”.

What about the “Ion intensity in rotenone-treated kidney tissues: Glycero-3-phosphocholine” value ([1]; rat, single oral 2 mg/kg, 24 h) of the same compound?
Its value is “↓*”.

And the “Ion intensity in rotenone-treated kidney tissues: Inosine” value ([1]; rat, single oral 2 mg/kg, 24 h)?
Its value is “↓**”.

And the “Ion intensity in rotenone-treated kidney tissues: LysoPC(18:0)” value ([1]; rat, single oral 2 mg/kg, 24 h)?
The value was “↓**”.

And the “ion intensity of choline in kidney tissues treated with rotenone” value ([1]; p < 0.001)?
Its value is “significant decrease”.

What about the “inosine level in treated kidney” value ([1]; p < 0.01) of the same compound?
Its value is “significant reduction”.

What about the “ion intensity levels of LysoPC(18:0) in rotenone-treated kidney tissues” value ([1]; p < 0.01) of the same compound?
The value was “decreased significantly”.

And the “GPC level in drug-treated kidney tissues” value ([1]; p < 0.05)?
The value was “decreased significantly”.

What about the “sphingomyelin (D18:1/16:0) level in treated kidney” value ([1]; p < 0.05) of the same compound?
The value was “significant increase”.

And the “histological alterations in kidney tissue sections stained with H&E” value [2]?
The value was “no discernible histological alterations were detected”.

And the “biotransformed metabolites of rotenone in kidney tissue sections (MALDI MSI)” value ([3]; kidney)?
Its value is “no biotransformed metabolites of rotenone were detected”.

What about the “biotransformed metabolites of rotenone in liver tissues (MALDI MSI)” value ([3]; liver) of the same compound?
Its value is “no biotransformed metabolites”.

And the oral acute toxicity [4]?
The oral acute toxicity was 34.10 mg/kg body weight.

And the metabolic clearance rate [5]?
Its metabolic clearance rate is “approximately 100 mL/min/kg”.

Source: article PMC11246995 (Frontiers in Molecular Biosciences, 2024)
